Laboratory results from patent US10376520B2, “Methods for the treatment of cardiovascular disorders” (Galapagos NV, priority 2015, dated 2019).

System: RA patients
Assay: Total cholesterol determination, Study 1 (RA patients with inadequate response to methotrexate, add-on to MTX)
Type: in vivo, human
Details: for [total cholesterol] Mean CFB / [Total cholesterol] Median CFB: Study 1 24 weeks results; for [total cholesterol] Mean percentage CFB - 24 weeks results: continued 25 mg b.i.d (N = 69)
Procedure: Double-blind, placebo-controlled add on study in subjects with moderately to severely active RA who have an inadequate response to methotrexate (MTX) (oral or parenteral).
595 subjects randomized to one of 6 dose regimens of Compound 1 (dosed as a [Compound 1:HCl:3H2O]) (3 dose levels administered either once or twice daily) or placebo on top of each subject's stable dose of MTX.
Compound 1 (dosed as a [Compound 1:HCl:3H2O]) is dosed for twelve weeks once daily (q.d.) (50 mg, 100 mg or 200 mg) or twice daily (b.i.d.) (25 mg, 50 mg or 100 mg); or placebo.
At Week 12, the subjects on placebo who have not achieved 20% improvement in swollen joint count (SJC66) and tender joint count (TJC68) are re-randomized automatically to receive Compound 1 (dosed as a [Compound 1:HCl:3H2O]) either at 100 mg q.d. or 50 mg b.i.d. doses in a blinded fashion; subjects on 50 mg q.d. who have not achieved 20% improvement in SJC66 and TJC68 will be assigned to 100 mg q.d. and subjects on 25 mg b.i.d. that have not achieved a 20% improvement in SJC66 and TJC68 will be assigned to 50 mg b.i.d. Subjects who switch treatment at week 12 are handled as if they discontinued at week 12 for the purpose of statistical analysis, whereas subjects in the other groups will maintain their randomized treatment until Week 24.
This method is based on the determination of Δ^4 cholestenone after enzymatic cleavage of the cholesterol ester by cholesterol esterase, conversion of cholesterol by cholesterol oxidase, and subsequent measurement by the Trinder reaction of the hydrogen peroxide formed (Allain et al., 1974).
Cholesterol esters are cleaved by the action of cholesterol esterase to yield free cholesterol and fatty acids. Cholesterol oxidase then catalyzes the oxidation of cholesterol to cholest-4-en-3-one and hydrogen peroxide. In the presence of peroxidase, the hydrogen peroxide formed effects the oxidative coupling of phenol and 4-aminophenazone to form a red quinone-imine dye. The color intensity of the dye formed is directly proportional to the cholesterol concentration. It is determined by measuring the increase in absorbance.
Human serum and plasma samples cholesterol determination was done on a Roche/Hitachi Cobas c 701/702 system which automatically calculate the analyte concentration of each sample.

[1] = placebo switched to 50 mg b.i.d at week 12, week 16
[2] = placebo switched to 50 mg b.i.d at week 12, week 20
[3] = placebo switched to 50 mg b.i.d at week 12, week 24

`O=C(Nc1nc2cccc(-c3ccc(CN4CCS(=O)(=O)CC4)cc3)n2n1)C1CC1` [Compound 1, cyclopropanecarboxylic acid {5-[4-(1,1-dioxo-thiomorpholin-4-ylmethyl)-phenyl]-[1,2,4]triazolo[1,5-a]pyridin-2yl}-amide] was tested, and the “[total cholesterol] Mean CFB” value (continued 100 mg b.i.d., week 2) was 0.36 mmol/L, the “[total cholesterol] Mean CFB” value (continued 100 mg b.i.d., week 4) was 0.43 mmol/L and the “[total cholesterol] Mean CFB” value (continued 100 mg b.i.d., week 8) was 0.64 mmol/L. For the same molecule, the “[total cholesterol] Mean CFB” value (continued 100 mg b.i.d., week 12) was 0.64 mmol/L, the “[total cholesterol] Mean CFB” value (continued 100 mg b.i.d., week 16) was 0.56 mmol/L and the “[total cholesterol] Mean CFB” value (continued 100 mg b.i.d., week 20) was 0.54 mmol/L. The “[total cholesterol] Mean CFB” value (continued 100 mg b.i.d., week 24) was 0.66 mmol/L, the “[Total cholesterol] Median CFB” value (continued 100 mg q.d., week 1) was 0.14 mmol/L and the “[total cholesterol] Mean CFB” value (continued 100 mg q.d., week 1) was 0.15 mmol/L. For the same molecule, the “[Total cholesterol] Median CFB” value (continued 100 mg q.d., week 2) was 0.06 mmol/L, the “[total cholesterol] Mean CFB” value (continued 100 mg q.d., week 2) was 0.10 mmol/L and the “[Total cholesterol] Median CFB” value (continued 100 mg q.d., week 4) was 0.25 mmol/L. For the same molecule, the “[total cholesterol] Mean CFB” value (continued 100 mg q.d., week 4) was 0.23 mmol/L, the “[Total cholesterol] Median CFB” value (continued 100 mg q.d., week 8) was 0.09 mmol/L and the “[total cholesterol] Mean CFB” value (continued 100 mg q.d., week 8) was 0.14 mmol/L. For the same molecule, the “[Total cholesterol] Median CFB” value (continued 100 mg q.d., week 12) was 0.30 mmol/L, the “[total cholesterol] Mean CFB” value (continued 100 mg q.d., week 12) was 0.23 mmol/L and the “[Total cholesterol] Median CFB” value (continued 100 mg q.d., week 16) was 0.00 mmol/L. The “[total cholesterol] Mean CFB” value (continued 100 mg q.d., week 16) was 0.06 mmol/L, the “[Total cholesterol] Median CFB” value (continued 100 mg q.d., week 20) was 0.17 mmol/L and the “[total cholesterol] Mean CFB” value (continued 100 mg q.d., week 20) was 0.13 mmol/L. For the same molecule, the “[Total cholesterol] Median CFB” value (continued 100 mg q.d., week 24) was 0.30 mmol/L, the “[total cholesterol] Mean CFB” value (continued 100 mg q.d., week 24) was 0.21 mmol/L and the “[total cholesterol] Mean CFB” value (continued 200 mg q.d., week 1) was 0.26 mmol/L. For the same molecule, the “[total cholesterol] Mean CFB” value (continued 200 mg q.d., week 2) was 0.29 mmol/L, the “[total cholesterol] Mean CFB” value (continued 200 mg q.d., week 4) was 0.37 mmol/L and the “[total cholesterol] Mean CFB” value (continued 200 mg q.d., week 8) was 0.44 mmol/L. The “[total cholesterol] Mean CFB” value (continued 200 mg q.d., week 12) was 0.46 mmol/L, the “[total cholesterol] Mean CFB” value (continued 200 mg q.d., week 16) was 0.37 mmol/L and the “[total cholesterol] Mean CFB” value (continued 200 mg q.d., week 20) was 0.43 mmol/L. For the same molecule, the “[Total cholesterol] Median CFB” value (continued 200 mg q.d., week 24) was 0.37 mmol/L, the “[total cholesterol] Mean CFB” value (continued 200 mg q.d., week 24) was 0.39 mmol/L and the “[total cholesterol] Mean CFB” value (increased from 25 mg b.i.d. to 50 mg b.i.d at 12 weeks, week 1) was -0.05 mmol/L. The “[total cholesterol] Mean CFB” value (increased from 25 mg b.i.d. to 50 mg b.i.d at 12 weeks, week 2) was -0.01 mmol/L, the “[total cholesterol] Mean CFB” value (increased from 25 mg b.i.d. to 50 mg b.i.d at 12 weeks, week 4) was -0.26 mmol/L and the “[total cholesterol] Mean CFB” value (increased from 25 mg b.i.d. to 50 mg b.i.d at 12 weeks, week 8) was -0.30 mmol/L. The “[total cholesterol] Mean CFB” value (increased from 25 mg b.i.d. to 50 mg b.i.d at 12 weeks, week 12) was -0.13 mmol/L, the “[total cholesterol] Mean CFB” value (increased from 25 mg b.i.d. to 50 mg b.i.d at 12 weeks, week 16) was 0.08 mmol/L and the “[total cholesterol] Mean CFB” value (increased from 25 mg b.i.d. to 50 mg b.i.d at 12 weeks, week 20) was -0.44 mmol/L. For the same molecule, the “[total cholesterol] Mean CFB” value (increased from 25 mg b.i.d. to 50 mg b.i.d at 12 weeks, week 24) was -0.09 mmol/L, the “[total cholesterol] Mean CFB” value (increased from 50 mg q.d. to 100 mg q.d. at 12 weeks, week 1) was 0.05 mmol/L and the “[total cholesterol] Mean CFB” value (increased from 50 mg q.d. to 100 mg q.d. at 12 weeks, week 2) was 0.26 mmol/L. For the same molecule, the “[total cholesterol] Mean CFB” value (increased from 50 mg q.d. to 100 mg q.d. at 12 weeks, week 4) was 0.11 mmol/L, the “[total cholesterol] Mean CFB” value (increased from 50 mg q.d. to 100 mg q.d. at 12 weeks, week 8) was 0.10 mmol/L and the “[total cholesterol] Mean CFB” value (increased from 50 mg q.d. to 100 mg q.d. at 12 weeks, week 12) was 0.10 mmol/L. For the same molecule, the “[total cholesterol] Mean CFB” value (increased from 50 mg q.d. to 100 mg q.d. at 12 weeks, week 16) was 0.37 mmol/L, the “[total cholesterol] Mean CFB” value (increased from 50 mg q.d. to 100 mg q.d. at 12 weeks, week 20) was 0.34 mmol/L and the “[total cholesterol] Mean CFB” value (increased from 50 mg q.d. to 100 mg q.d. at 12 weeks, week 24) was 0.25 mmol/L. For the same molecule, the “[Total cholesterol] Median CFB” value [1] was 0.25 mmol/L, the “[total cholesterol] Mean CFB” value [1] was 0.08 mmol/L and the “[Total cholesterol] Median CFB” value [2] was 0.25 mmol/L. For the same molecule, the “[total cholesterol] Mean CFB” value [2] was 0.18 mmol/L, the “[Total cholesterol] Median CFB” value [3] was 0.36 mmol/L and the “[total cholesterol] Mean CFB” value [3] was 0.06 mmol/L. The “[total cholesterol] Mean CFB” value (placebo switched to 100 mg q.d. at week 12, week 16) was -0.16 mmol/L, the “[total cholesterol] Mean CFB” value (placebo switched to 100 mg q.d. at week 12, week 20) was -0.17 mmol/L and the “[total cholesterol] Mean CFB” value (placebo switched to 100 mg q.d. at week 12, week 24) was -0.26 mmol/L. The “[total cholesterol] Mean percentage CFB - 24 weeks results” value (“[total cholesterol] Mean percentage CFB” for short) (week 1) was 2.56%, the “[total cholesterol] Mean percentage CFB” value (week 2) was 3.22% and the “[total cholesterol] Mean percentage CFB” value (week 4) was 4.05%. The “[total cholesterol] Mean percentage CFB” value (week 8) was 4.25%.
